Data published in PubChem BioAssay AID588327 (The Scripps Research Institute Molecular Screening Center, 2011).
Active and inactive are the calls of the source. The rule behind the calls is not given here.

Biological target: Sphingosine 1-phosphate receptor 3 (Homo sapiens) (UniProt Q99500)
Assay: S1P3 radioligand displacement, late-stage follow-up, mechanism study for S1P3 agonist project, cell-based, [33P]S1P, radiometric, dose response (AID 588327)
Conditions: S1P3 membranes, [33P]S1P competition binding, CPM

Chain of Sphingosine 1-phosphate receptor 3 (Homo sapiens) (Q99500 whole entry, looked up): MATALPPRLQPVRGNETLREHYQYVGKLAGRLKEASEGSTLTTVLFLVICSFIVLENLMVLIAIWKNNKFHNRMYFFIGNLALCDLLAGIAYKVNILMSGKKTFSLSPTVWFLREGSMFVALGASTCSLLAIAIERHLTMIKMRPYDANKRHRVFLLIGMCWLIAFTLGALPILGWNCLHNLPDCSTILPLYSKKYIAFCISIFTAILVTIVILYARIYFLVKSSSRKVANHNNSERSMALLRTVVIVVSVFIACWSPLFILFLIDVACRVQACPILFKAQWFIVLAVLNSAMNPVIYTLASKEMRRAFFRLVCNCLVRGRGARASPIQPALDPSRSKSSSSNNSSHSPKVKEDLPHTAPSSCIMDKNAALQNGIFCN

IC50: > 10 µM (inactive)
Structure (SMILES): O=C(c1cc(C2CC2)on1)N(C1CCCCC1)C1CCCCC1
